Measurements from patent US12569502B2, “Use of bile acids and derivatives thereof in preparation of GPR39 agonist” (PEKING UNIVERSITY, priority 2019, dated 2026).
Numbering of substitutions follows the chain as printed.

Columns and labels:
Assay type in all cases: cell-based
[1] = target: T1, zinc ion binding site mutant (H17A and H19A) GPR39 (Mus musculus, UniProt Q5U431, H17A/H19A); assay: Calcium imaging on 293T cells transiently transfected with zinc ion binding site mutant GPR39; settings: transiently transfected HEK293T cells
T1 construct: 3HA (N); P2A-mCherry (C); expressed in transfected cells; host or cells: HEK293T, transient (Lipofectamine 3000)
T1 sequence (Q5U431 1-456 H17A/H19A): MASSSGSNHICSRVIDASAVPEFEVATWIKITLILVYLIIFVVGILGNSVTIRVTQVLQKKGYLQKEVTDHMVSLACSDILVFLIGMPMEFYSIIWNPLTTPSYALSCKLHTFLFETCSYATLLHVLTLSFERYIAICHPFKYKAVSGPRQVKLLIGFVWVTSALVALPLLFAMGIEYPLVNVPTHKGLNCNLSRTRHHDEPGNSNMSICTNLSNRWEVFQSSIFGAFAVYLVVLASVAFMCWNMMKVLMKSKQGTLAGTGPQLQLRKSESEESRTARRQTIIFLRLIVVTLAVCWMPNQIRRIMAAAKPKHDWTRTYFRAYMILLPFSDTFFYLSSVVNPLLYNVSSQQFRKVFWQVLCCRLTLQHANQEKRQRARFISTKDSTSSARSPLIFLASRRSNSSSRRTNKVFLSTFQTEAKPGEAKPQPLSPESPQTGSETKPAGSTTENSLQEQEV
From the text: In the present application, the bile acid and/or derivative thereof is capable of activating the GPR39 independent of a zinc ion binding site. For example, in some embodiments, murine-derived wild-type (WT) GPR39 or zinc ion binding site mutant (H17A and H19A) GPR39 are transiently expressed in 293T cells by using lipofectamine3000 transfection kit. The activation effect of LCAS on the wild-type (WT) and mutants (H17A and H19A) is detected by calcium imaging.
The pCMV6-3HA-mGPR39-P2A-mCherry vector carrying murine-derived GPR39 gene and having a total length of about 7 Kbp was selected as the PCR template, and a site-directed mutant vector was obtained by PCR site-directed mutagenesis. With the mutation site as the centre, a forward primer m39-H17A-F and a reverse primer m39-H17A-R were designed by extending approximately 15 bp each way, which sequences were respectively shown in Table 3 below. At 1 bp upstream of the mutation site, a 15 bp complementary sequence to the forward primer was designed, and the length of the reverse primer was designed to maintain the annealing temperature of the primer at 60° C. A high-fidelity DNA polymerase (Phanta Max Super-fidelity DNA polymerase, Vazyme) was used for site-directed PCR. 5 μL cutsmart buffer (NEB) and 1 μL restriction endonuclease DpnI (NEB) were added into the PCR product for overnight digestion, and then 10 μL of the product was transferred into 50 μL DH5α for heat shock transformation. The corresponding resistant solid LB medium was selected to coat and culture the product and enable it grow overnight at 37° C. A single colony was picked for inoculation, and the bacteria were shaken to extract the plasmid which was verified by sequencing. A monoclonal vector which had been sequenced to be correct was selected and marked as pCMV6-3HA-mGPR39(H17A&H19A)-P2A-mCherry, which structure was shown in FIG. 5.
HEK293T cells were seeded in a PDL-coated 96-well plate (coring Co.) at an appropriate density (about 3×10^4 cells/well) and cultured under conditions of 37° C. and 5% CO2. […]

GPR39 mutant E90A = target: T2, GPR39 mutant E90A (Mus musculus, UniProt Q5U431, E90A); assay: Calcium imaging of GPR39 activation site mutant, transiently transfected cells; settings: FIG. 7
T2 construct: 3HA (N); P2A-mCherry (C); expressed in transfected cells; host or cells: HEK293T, transient (Lipofectamine 3000)
T2 sequence (Q5U431 1-456 E90A): T1 sequence (Q5U431 1-456 H17A/H19A) with A17H, A19H, E90A
From the text: (§1) GPR39 mutants E90A, F115A, E116A and D330A were firstly constructed according to the method of Example 5.

GPR39 mutant F115A = target: T3, GPR39 mutant F115A (Mus musculus, UniProt Q5U431, F115A); assay: as above; settings: FIG. 7
T3 construct: 3HA (N); P2A-mCherry (C); expressed in transfected cells; host or cells: HEK293T, transient (Lipofectamine 3000)
T3 sequence (Q5U431 1-456 F115A): T1 sequence (Q5U431 1-456 H17A/H19A) with A17H, A19H, F115A
From the text: as §1

SMILES | EC50 ([1]; agonist alone) [µM] | EC50 ([1]; + 4 μM zinc ions) [µM] | activation of mutant E90A (calcium imaging) (GPR39 mutant E90A) | activation of mutant F115A (calcium imaging) (GPR39 mutant F115A)
[Zn+2] [Zinc ions, reference compound] | > 100 | – | – | –
C[C@H](CCC(=O)O)[C@H]1CC[C@H]2[C@@H]3CC[C@@H]4C[C@H](OS(=O)(=O)O)CC[C@]4(C)[C@H]3CC[C@]12C [LCAS] | 24 ± 0.8 | 8.7 ± 0.8 | activated | activated
